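Briefly, cells in 96-well plates were exposed to five compound concentrations for 48 h, and endpoints were estimated by linear interpolation. GI50 = concentration required for 50% inhibition of growth.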 The source made the active and inactive calls. Cut-off read from the data, not from the text of the source: active = GI50 up to about 1.1 µM and inactive = higher.
How the values were obtained:
Experiment in all cases: NCI-60 cell line screen, 48 h
[1] = tested on: 786-0
[2] = tested on: A498
[3] = tested on: A549
[4] = tested on: ACHN
[5] = tested on: CAKI-1
[6] = tested on: CCRF-CEM
[7] = tested on: COLO 205
[8] = tested on: DLD-1
[9] = tested on: DMS-114
[10] = tested on: EKVX
[11] = tested on: HCC 2998
[12] = tested on: HCT-116
[13] = tested on: HCT-15
[14] = tested on: HOP-62
[15] = tested on: HOP-92
[16] = tested on: HT-29
[17] = tested on: IGROV-1
[18] = tested on: K562
[19] = tested on: KM12
[20] = tested on: M14
[21] = tested on: M19-MEL
[22] = tested on: MOLT-4
[23] = tested on: Malme-3M
[24] = tested on: NCI-H226
[25] = tested on: NCI-H23
[26] = tested on: NCI-H460
[27] = tested on: NCI-H522
[28] = tested on: OVCAR-3
[29] = tested on: OVCAR-4
[30] = tested on: OVCAR-5
[31] = tested on: OVCAR-8
[32] = tested on: RPMI-8226
[33] = tested on: RXF 393
[34] = tested on: SF-268
[35] = tested on: SF-295
[36] = tested on: SF-539
[37] = tested on: SK-MEL-28
[38] = tested on: SK-MEL-2
[39] = tested on: SK-MEL-5
[40] = tested on: SK-OV-3
[41] = tested on: SN12C
[42] = tested on: SNB-19
[43] = tested on: SNB-78
[44] = tested on: SR
[45] = tested on: U-251
[46] = tested on: UACC-257
[47] = tested on: UACC-62
[48] = tested on: UO-31
[49] = tested on: DMS-273
[50] = tested on: HL-60
[51] = tested on: KM-20L2
[52] = tested on: LOX IMVI
[53] = tested on: LXFL 529
[54] = tested on: SNB-75
[55] = tested on: SW-620
[56] = tested on: TK-10
[57] = tested on: XF498

O=C1C=C(Nc2ccccc2C(=O)CC(=O)C(=O)Nc2ccc(Cl)c(Cl)c2)c2ccccc2C1=O
GI50 [1]: 35.3 µM (inactive) | GI50 [2]: > 100 µM (inactive) | GI50 [3]: 53.1 µM (inactive) | GI50 [4]: 73.5 µM (inactive) | GI50 [5]: 87.3 µM (inactive) | GI50 [6]: 4.76 µM (inactive) | GI50 [7]: > 100 µM (inactive) | GI50 [8]: 19.7 µM (inactive) | GI50 [9]: 18.2 µM (inactive) | GI50 [10]: > 10 µM (inactive) | GI50 [11]: > 100 µM (inactive) | GI50 [12]: > 10 µM (inactive) | GI50 [13]: 20.4 µM | GI50 [14]: > 100 µM (inactive) | GI50 [15]: 75.9 µM (inactive) | GI50 [16]: > 100 µM (inactive) | GI50 [17]: > 100 µM (inactive) | GI50 [18]: 12.2 µM (inactive) | GI50 [19]: 59.6 µM (inactive) | GI50 [20]: 32.1 µM (inactive) | GI50 [21]: 3.98 µM (inactive) | GI50 [22]: 3.72 µM (inactive) | GI50 [23]: 12.6 µM (inactive) | GI50 [24]: 55.5 µM (inactive) | GI50 [25]: 21.1 µM (inactive) | GI50 [26]: 36.2 µM (inactive) | GI50 [27]: 18.6 µM (inactive) | GI50 [28]: 34.4 µM (inactive) | GI50 [29]: 59.4 µM (inactive) | GI50 [30]: > 100 µM (inactive) | GI50 [31]: 26.7 µM (inactive) | GI50 [32]: 35.6 µM (inactive) | GI50 [33]: 71.3 µM (inactive) | GI50 [34]: 19.9 µM (inactive) | GI50 [35]: 59 µM (inactive) | GI50 [36]: 51.2 µM (inactive) | GI50 [37]: 10.6 µM (inactive) | GI50 [38]: 30.6 µM (inactive) | GI50 [39]: 7.78 µM (inactive) | GI50 [40]: > 100 µM (inactive) | GI50 [41]: 35.1 µM (inactive) | GI50 [42]: 37.5 µM (inactive) | GI50 [43]: 5.31 µM (inactive) | GI50 [44]: 5 µM (inactive) | GI50 [45]: 34.7 µM (inactive) | GI50 [46]: 20.9 µM (inactive) | GI50 [47]: 23.6 µM (inactive) | GI50 [48]: 50.7 µM (inactive)

CCOC(=O)CSc1cc[nH]c(=O)n1
GI50 [1]: > 100 µM (inactive) | GI50 [2]: > 100 µM (inactive) | GI50 [3]: > 100 µM (inactive) | GI50 [4]: > 100 µM (inactive) | GI50 [5]: > 100 µM (inactive) | GI50 [6]: > 100 µM (inactive) | GI50 [7]: > 100 µM (inactive) | GI50 [9]: > 100 µM (inactive) | GI50 [49]: > 100 µM (inactive) | GI50 [10]: > 100 µM (inactive) | GI50 [12]: > 100 µM (inactive) | GI50 [13]: > 100 µM | GI50 [50]: > 100 µM (inactive) | GI50 [16]: > 100 µM (inactive) | GI50 [17]: > 100 µM (inactive) | GI50 [18]: > 100 µM (inactive) | GI50 [51]: > 100 µM (inactive) | GI50 [19]: > 100 µM (inactive) | GI50 [52]: > 100 µM (inactive) | GI50 [53]: > 100 µM (inactive) | GI50 [20]: > 100 µM (inactive) | GI50 [21]: > 100 µM (inactive) | GI50 [22]: > 100 µM (inactive) | GI50 [23]: > 100 µM (inactive) | GI50 [26]: > 100 µM (inactive) | GI50 [27]: > 100 µM (inactive) | GI50 [28]: > 100 µM (inactive) | GI50 [30]: > 100 µM (inactive) | GI50 [31]: > 100 µM (inactive) | GI50 [32]: > 100 µM (inactive) | GI50 [33]: 31.6 µM (inactive) | GI50 [34]: > 100 µM (inactive) | GI50 [35]: > 100 µM (inactive) | GI50 [36]: > 100 µM (inactive) | GI50 [38]: > 100 µM (inactive) | GI50 [39]: > 100 µM (inactive) | GI50 [40]: > 100 µM (inactive) | GI50 [41]: > 100 µM (inactive) | GI50 [42]: > 100 µM (inactive) | GI50 [54]: > 100 µM (inactive) | GI50 [43]: > 100 µM (inactive) | GI50 [55]: > 100 µM (inactive) | GI50 [56]: > 100 µM (inactive) | GI50 [45]: > 100 µM (inactive) | GI50 [46]: > 100 µM (inactive) | GI50 [47]: > 100 µM (inactive) | GI50 [48]: > 100 µM (inactive) | GI50 [57]: 75 µM (inactive)

From ChEMBL document CHEMBL1201862, “PubChem BioAssay data set” (2004)
